Results published in patent US6410585B1, “Inhibitors of protein tyrosine phosphatase” (priority 1997, dated 2002).
Where “and” joins values, the source holds several entries; their conditions need not be identical. Equal entries are not always repeated. Where two headings read alike, the source gives them in different places.

Tests used:
human PTP1B = target: T1, human PTP1B (Homo sapiens, UniProt P18031); assay: PTP1B assay, pNPP hydrolysis, assayed exactly as for PTP1; assay type: biochemical; conditions: for PTP1B Inhib PTP1B. % Inhib: Table 2; for inhibition at 1 µM / inhibition at 10 µM / inhibition at 100 µM: Table 2, read-out: PTP1B Inhib PTP1B. % Inhib
T1 construct: human PTP1B (amino acid residues 1-321); made in house; host or cells: E. coli BL21(DE3)
T1 sequence (P18031 1-321): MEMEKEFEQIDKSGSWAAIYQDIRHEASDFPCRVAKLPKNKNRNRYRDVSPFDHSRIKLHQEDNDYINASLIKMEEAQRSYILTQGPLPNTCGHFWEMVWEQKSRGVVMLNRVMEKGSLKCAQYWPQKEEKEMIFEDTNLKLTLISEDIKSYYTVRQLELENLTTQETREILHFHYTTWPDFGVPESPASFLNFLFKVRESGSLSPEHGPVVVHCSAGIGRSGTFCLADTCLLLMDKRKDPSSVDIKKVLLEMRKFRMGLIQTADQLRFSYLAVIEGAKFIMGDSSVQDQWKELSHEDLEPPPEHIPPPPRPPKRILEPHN
From the text: The equivalent construct of human PTP1B (amino acid residues 1-321) (cloned from a human placental library), without the GST tag and thrombin cleavage site, was inserted into a pMB replicon and transformed into E. coli BL21(DE3), a strain containing a chromosomal copy of the gene for T7 RNA polymerase under control of a lacUV5 promoter. Expression of PTP1B was induced with isopropyl thiogalactose and the soluble protein was purified by ion exchange, hydrophobic interaction and gel exclusion chromatography for use in the assay to identify PTP inhibitors.
PTP1 activity is measured using either p-nitrophenol phosphate (pNPP) or a triphosphopeptide (that matches residues 1142 through 1153 of the β-subunit and the insulin receptor) as substrate in a 96-well microtiter plate format. An assay pH of 7.2 is used for standard assays (measured 405=9800 at pH 7.2).
Human PTP1B, which is highly homologous to rat PTP1, was assayed exactly as described above for PTP1.
Standard assays are conducted at room temperature in a total volume of 0.2 ml that contains Hepes buffer (50 mM, pH 7.2), NaCl (50 mM), EDTA (1 mM), DTT (1 mM), bovine serum albumin (1 mg/ml), pNPP (1 mM) and PTP1 (35 ng/ml). Compounds (2 μl of 10 mM solutions) are pipetted into wells of microtiter plates followed by 198 μl of premixed reaction mix (with PTP1 and pNPP added immediately before use). The rate of change in A405 is recorded for 60 min. Two wells on each plate contain DMSO controls and two wells contain sodium orthovanadate (1 mM) which inhibits PTP1-catalyzed hydrolysis of pNPP completely. Data are expressed as percent inhibition relative to the average of the DMSO controls measured on the same microtiter plate.

rat PTP1 = target: T2, rat PTP1 (Rattus norvegicus, UniProt P20417); assay: PTP1 assay, pNPP hydrolysis (rate of change in A405); assay type: biochemical; conditions: for Ki: calculated from IC50-values obtained from a dose-response curve using the inhibition assay
T2 construct: a C-terminal truncation of rat PTP1 (amino acid residues 1-322); GST (N, cleaved yes); made in house; host or cells: E. coli strain TG-1 (pGEX-2T)
T2 sequence (P20417 1-322): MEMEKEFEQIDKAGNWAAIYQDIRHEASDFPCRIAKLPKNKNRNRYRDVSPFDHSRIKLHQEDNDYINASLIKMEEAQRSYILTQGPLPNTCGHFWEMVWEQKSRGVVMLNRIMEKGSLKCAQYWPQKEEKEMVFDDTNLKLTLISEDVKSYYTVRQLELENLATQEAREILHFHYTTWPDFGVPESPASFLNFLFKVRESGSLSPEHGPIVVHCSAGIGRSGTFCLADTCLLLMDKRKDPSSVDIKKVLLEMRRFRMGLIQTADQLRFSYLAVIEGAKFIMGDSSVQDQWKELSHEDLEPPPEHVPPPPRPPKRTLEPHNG
Procedure, shortened: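 Thrombin-cleaved rat PTP1 residues 1-322 (35 ng/ml) with 1 mM pNPP in 50 mM Hepes pH 7.2, NaCl, EDTA, DTT, BSA at room temperature. A405 rate followed 60 min. Compounds added as 10 mM solutions; percent inhibition relative to plate DMSO controls, 1 mM orthovanadate as full-inhibition control.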

[1] = inhibition of pNPP-hydrolysis, compound concentration 1 μM, read-out: % Inhibition
[2] = inhibition of pNPP-hydrolysis, compound concentration 10 μM, read-out: % Inhibition
[3] = inhibition of pNPP-hydrolysis, compound concentration 100 μM, read-out: % Inhibition
[4] = Conc 1 uM, pNPP hydrolysis, Table 1
[5] = Conc 10 uM, pNPP hydrolysis, Table 1
[6] = Conc 100 uM, pNPP hydrolysis, Table 1

## CCCCCNC(=O)C(Cc1ccc(OC(COO)COO)cc1)NC(=O)N(Cc1ccccc1)Cc1ccccc1 (stereo not shown)
Human PTP1B; Conc 1 uM
  PTP1B Inhib PTP1B. % Inhib: 14%
  inhibition at 1 µM: 18%
Human PTP1B; Conc 10 uM
  PTP1B Inhib PTP1B. % Inhib: 59%
  inhibition at 10 µM: 65%
Human PTP1B; Conc 100 uM
  PTP1B Inhib PTP1B. % Inhib: 93%
  inhibition at 100 µM: 95%

## CCCCCNC(=O)C(Cc1ccc(OC(COO)COO)cc1)NC(=O)C(CSCc1ccccc1)NC(=O)OC(C)(C)C (stereo not shown)
Human PTP1B; Conc 1 uM
  PTP1B Inhib PTP1B. % Inhib: 3%
  inhibition at 1 µM: 2%
Human PTP1B; Conc 10 uM
  PTP1B Inhib PTP1B. % Inhib: 16%
  inhibition at 10 µM: 14%
Human PTP1B; Conc 100 uM
  PTP1B Inhib PTP1B. % Inhib: 83%
  inhibition at 100 µM: 75%

## CCCCCNC(=O)C(Cc1ccc(OC(COO)COO)cc1)NC(=O)C(Cc1ccc2ccccc2c1)NC(=O)OC(C)(C)C (stereo not shown)
Human PTP1B; Conc 1 uM
  PTP1B Inhib PTP1B. % Inhib: 1% and 3%
Human PTP1B; Conc 10 uM
  inhibition at 10 µM: 29%
Human PTP1B; Conc 100 uM
  PTP1B Inhib PTP1B. % Inhib: 90%
  inhibition at 100 µM: 93%

## CCCCCNC(=O)C(Cc1ccc(OC(COO)COO)cc1)NC(=O)C(CCc1ccccc1)NC(=O)OC(C)(C)C (stereo not shown)
Human PTP1B; Conc 1 uM
  inhibition at 1 µM: 2%
Human PTP1B; Conc 10 uM
  PTP1B Inhib PTP1B. % Inhib: 7% and 17%
Human PTP1B; Conc 100 uM
  PTP1B Inhib PTP1B. % Inhib: 77%
  inhibition at 100 µM: 58%

## CCCCCNC(=O)C(Cc1ccc(OCCOO)c(COO)c1)NC(=O)C(Cc1ccccc1)NC(=O)CCC(=O)O (stereo not shown)
Human PTP1B; Conc 1 uM
  PTP1B Inhib PTP1B. % Inhib: 66%
  inhibition at 1 µM: 64%
Human PTP1B; Conc 10 uM
  PTP1B Inhib PTP1B. % Inhib: 92%
  inhibition at 10 µM: 93%
Human PTP1B; Conc 100 uM
  inhibition at 100 µM: 98%

## CCCCCNC(=O)C(Cc1ccc(OC(COO)COO)cc1)NC(=O)C(Cc1ccccc1)NS(=O)OC (stereo not shown)
Human PTP1B; Conc 1 uM
  inhibition at 1 µM: 9%
Human PTP1B; Conc 10 uM
  inhibition at 10 µM: 40%
Human PTP1B; Conc 100 uM
  inhibition at 100 µM: 86%

## CCCCCNC(=O)C(Cc1ccc(OC(COO)COO)cc1)NC(=O)C(Cc1ccccc1)NC(=O)CCN(CC)CC (stereo not shown)
Human PTP1B; Conc 1 uM
  inhibition at 1 µM: 12%
Human PTP1B; Conc 10 uM
  inhibition at 10 µM: 54%
Human PTP1B; Conc 100 uM
  inhibition at 100 µM: 92%

## CCCCCNC(=O)C(Cc1ccc(OCCOO)c(COO)c1)NC(=O)C(Cc1ccc(O)cc1)NC(=O)OC(C)(C)C (stereo not shown)
Human PTP1B; Conc 1 uM
  PTP1B Inhib PTP1B. % Inhib: 28%
  inhibition at 1 µM: 32%
Human PTP1B; Conc 10 uM
  PTP1B Inhib PTP1B. % Inhib: 78%
  inhibition at 10 µM: 81%
Human PTP1B; Conc 100 uM
  PTP1B Inhib PTP1B. % Inhib: 96%
  inhibition at 100 µM: 97%

## CC(C)(C)OC(=O)N[C@@H](Cc1ccccc1)C(=O)N[C@H](Cc1ccc(OCC(=O)O)c(C(=O)O)c1)C(=O)NCCCN1CCCC1=O [Example 157-12, 5-((2R)-2-({(2S)-2-[(tert-Butoxycarbonyl)amino]-3-phenylpropanoyl}amino)-3-oxo-3-{[3-(2-oxo-1-pyrrolidinyl)propyl]amino}propyl)-2-(carboxymethoxy)benzoic Acid]
Rat PTP1; [1]
  inhibition at 1 µM: 27%
Rat PTP1; [2]
  inhibition at 10 µM: 76%
Rat PTP1; [3]
  inhibition at 100 µM: 95%

## CC(C)(C)OC(=O)N[C@@H](Cc1ccccc1)C(=O)N[C@@H](Cc1ccc(OCC(=O)O)c(C(=O)O)c1)C(=O)NCc1cccnc1 [Example 157-14, 5-{(2S)-2-({(2S)-2-[(tert-Butoxycarbonyl)amino]-3-phenylpropanoyl}amino)-3-oxo-3-[(3-pyridinylmethyl)amino]propyl}-2-(carboxymethoxy)benzoic Acid]
Rat PTP1; [1]
  inhibition at 1 µM: 20%
Rat PTP1; [2]
  inhibition at 10 µM: 67%
Rat PTP1; [3]
  inhibition at 100 µM: 94%

## CC(C)OCCCNC(=O)[C@H](Cc1ccc(OCC(=O)O)c(C(=O)O)c1)NC(=O)[C@H](Cc1ccccc1)NC(=O)OC(C)(C)C [Example 157-16, 5-{(2S)-2-({(2S)-2-[(tert-Butoxycarbonyl)amino]-3-phenylpropanoyl}amino)-3-[(3-isopropoxypropyl)amino]-3-oxopropyl}-2-(carboxymethoxy)benzoic Acid]
Rat PTP1; [1]
  inhibition at 1 µM: 38%
Rat PTP1; [2]
  inhibition at 10 µM: 83%
Rat PTP1; [3]
  inhibition at 100 µM: 97%

## CC(C)(C)OC(=O)N[C@@H](Cc1ccccc1)C(=O)N[C@@H](Cc1ccc(OCC(=O)O)c(C(=O)O)c1)C(=O)NCCCO [Example 157-21, 5-{(2S)-2-({(2S)-2-[(tert-Butoxycarbonyl)amino]-3-phenylpropanoyl}amino)-3-[(3-hydroxypropyl)amino]-3-oxopropyl}-2-(carboxymethoxy)benzoic Acid]
Rat PTP1; [1]
  inhibition at 1 µM: 24%
Rat PTP1; [2]
  inhibition at 10 µM: 73%
Rat PTP1; [3]
  inhibition at 100 µM: 95%

## CC(C)(C)OC(=O)N[C@@H](Cc1ccccc1)C(=O)N[C@@H](Cc1ccc(OCC(=O)O)c(C(=O)O)c1)C(=O)NOCCCc1ccccc1 [Example 157-28, 5-{(2S)-2-({(2S)-2-[(tert-Butoxycarbonyl)amino]-3-phenylpropanoyl}amino)-3-oxo-3-[(3-phenylpropoxy)amino]propyl}-2-(carboxymethoxy)benzoic Acid]
Rat PTP1
  Ki: 0.4 µM

## CCCCCNC(=O)[C@H](Cc1ccc(OCC(=O)O)c(C(=O)O)c1)NC(=O)[C@H](Cc1ccccc1)NC(=O)Oc1ccccc1 [Example 158, 2-(Carboxymethoxy)-5-[(2S)-3-oxo-3-(pentylamino)-2-({(2S)-2-[(phenoxycarbonyl)amino]-3-phenylpropanoyl}amino)propyl]benzoic Acid]
Rat PTP1
  Ki: 0.87 µM
Rat PTP1; [1]
  inhibition at 1 µM: 43%
Rat PTP1; [2]
  inhibition at 10 µM: 85%
Rat PTP1; [3]
  inhibition at 100 µM: 97%

## CCCCCNC(=O)C(Cc1ccc(OC(COO)COO)cc1)NC(=O)CCC(=O)O (stereo not shown) [drawing 81]
Rat PTP1; [4]
  PTP1 Inhib % Inhib: 1%
Rat PTP1; [5]
  PTP1 Inhib % Inhib: 25%
Rat PTP1; [6]
  PTP1 Inhib % Inhib: 81% and 76%

## CCCCCNC(=O)C(Cc1ccc(OC(COO)COO)cc1)NC(=O)CCC(=O)O (stereo not shown) [drawing 101]
Rat PTP1; [4]
  PTP1 Inhib % Inhib: 3%
Rat PTP1; [5]
  PTP1 Inhib % Inhib: 4%
Rat PTP1; [6]
  PTP1 Inhib % Inhib: 39%

## CCCCCNC(=O)C(Cc1ccc(OC(COO)COO)cc1)NC(=O)C(Cc1ccc(C(=O)c2ccccc2)cc1)NC(=O)CCC(=O)O (stereo not shown) [drawing 133]
Rat PTP1; Conc 1 uM, pNPP hydrolysis, Table 1, read-out: PTP1 Inhib % Inhib
  inhibition at 1 µM: 42%
Rat PTP1; Conc 10 uM, pNPP hydrolysis, Table 1, read-out: PTP1 Inhib % Inhib
  inhibition at 10 µM: 87%
Rat PTP1; Conc 100 uM, pNPP hydrolysis, Table 1, read-out: PTP1 Inhib % Inhib
  inhibition at 100 µM: 98%

## CCCCCNC(=O)C(Cc1ccc(OC(COO)COO)cc1)NC(=O)C(Cc1ccc(C(=O)c2ccccc2)cc1)NC(=O)CCC(=O)O (stereo not shown) [drawing 139]
Rat PTP1; Conc 1 uM, pNPP hydrolysis, Table 2, read-out: PTP1 Inhib PTP1N. % Inhib
  inhibition at 1 µM: 4%
Rat PTP1; Conc 10 uM, pNPP hydrolysis, Table 2, read-out: PTP1 Inhib PTP1N. % Inhib
  inhibition at 10 µM: 13%
Rat PTP1; Conc 100 uM, pNPP hydrolysis, Table 2, read-out: PTP1 Inhib PTP1N. % Inhib
  inhibition at 100 µM: 54%

## [Na+].[Na+].[Na+].[O]=[V]([O-])([O-])[O-] [sodium orthovanadate, reference compound]
Rat PTP1; 1 mM, control wells on each plate
  inhibits PTP1-catalyzed hydrolysis of pNPP: completely
